{"source": "patent US20240327364A1", "about": "“THERAPEUTIC TARGETING OF GPR68 TO INDUCE FERROPTOSIS” (University Of Maryland, Baltimore, priority 2023, published 2024)", "key": {"[1]": {"biological_target": "T1, MARK1 (Homo sapiens, UniProt Q9P0L2)", "T1 construct": "purchased DiscoveRx (Fremont, CA)", "test": "KinomeScan", "assay_type": "binding", "conditions": "read-out: % Control"}, "[2]": {"biological_target": "T2, FLT3(N841I) (Homo sapiens, UniProt P36888, N841I)", "T2 construct": "purchased DiscoveRx (Fremont, CA)", "test": "KinomeScan", "assay_type": "binding", "conditions": "read-out: % Control"}, "[3]": {"biological_target": "T3, ADRA1D (Homo sapiens, UniProt P25100)", "T3 construct": "host or cells: Chem-1 cells with promiscuous Gα15", "test": "GPCR Profiler", "assay_type": "cell-based"}, "[4]": {"biological_target": "T4, ABL1(M351T)-phosphorylated (Homo sapiens, UniProt P00519, M351T)", "T4 construct": "purchased DiscoveRx", "test": "KinomeScan", "assay_type": "binding", "conditions": "read-out: % Control"}, "[5]": {"biological_target": "T5, MYO3B (Homo sapiens, UniProt Q8WXR4)", "T5 construct": "purchased DiscoveRx", "test": "KinomeScan", "assay_type": "binding", "conditions": "read-out: % Control"}, "[6]": {"biological_target": "T6, PIK3CB (Homo sapiens, UniProt P42338)", "T6 construct": "purchased DiscoveRx (Fremont, CA)", "T6 sequence (P42338 whole entry)": "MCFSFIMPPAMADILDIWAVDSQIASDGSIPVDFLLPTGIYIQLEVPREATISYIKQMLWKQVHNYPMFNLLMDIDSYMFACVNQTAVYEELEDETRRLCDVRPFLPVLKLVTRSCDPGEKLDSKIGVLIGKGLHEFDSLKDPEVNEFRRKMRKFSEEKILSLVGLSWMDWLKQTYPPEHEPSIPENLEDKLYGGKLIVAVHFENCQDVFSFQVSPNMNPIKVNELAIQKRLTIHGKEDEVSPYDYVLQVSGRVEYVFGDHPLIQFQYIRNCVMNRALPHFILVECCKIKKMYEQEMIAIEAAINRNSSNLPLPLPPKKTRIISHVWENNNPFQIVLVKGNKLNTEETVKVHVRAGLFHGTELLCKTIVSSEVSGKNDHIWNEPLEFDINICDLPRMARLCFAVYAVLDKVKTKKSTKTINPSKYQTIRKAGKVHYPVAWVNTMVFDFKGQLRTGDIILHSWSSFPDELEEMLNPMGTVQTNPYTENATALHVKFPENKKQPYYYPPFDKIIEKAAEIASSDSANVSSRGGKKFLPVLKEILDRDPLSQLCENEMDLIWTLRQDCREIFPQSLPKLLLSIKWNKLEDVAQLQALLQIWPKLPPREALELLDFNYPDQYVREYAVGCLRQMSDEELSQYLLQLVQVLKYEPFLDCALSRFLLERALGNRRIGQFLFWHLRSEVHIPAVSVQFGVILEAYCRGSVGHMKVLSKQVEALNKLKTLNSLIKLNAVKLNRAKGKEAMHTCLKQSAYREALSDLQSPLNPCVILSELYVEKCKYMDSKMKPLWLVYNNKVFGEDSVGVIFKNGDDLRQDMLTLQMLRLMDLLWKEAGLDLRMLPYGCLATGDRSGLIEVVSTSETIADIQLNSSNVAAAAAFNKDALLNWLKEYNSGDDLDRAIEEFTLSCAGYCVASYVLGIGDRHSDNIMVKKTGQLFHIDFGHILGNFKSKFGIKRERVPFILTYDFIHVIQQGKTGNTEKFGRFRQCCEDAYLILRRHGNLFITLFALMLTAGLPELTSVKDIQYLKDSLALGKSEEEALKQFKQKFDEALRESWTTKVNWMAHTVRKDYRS", "test": "KinomeScan", "assay_type": "binding", "conditions": "read-out: % Control"}, "[7]": {"biological_target": "T7, TSH (Homo sapiens, UniProt P16473)", "T7 construct": "host or cells: Chem-1 cells with Gα15", "T7 sequence (P16473 21-764)": "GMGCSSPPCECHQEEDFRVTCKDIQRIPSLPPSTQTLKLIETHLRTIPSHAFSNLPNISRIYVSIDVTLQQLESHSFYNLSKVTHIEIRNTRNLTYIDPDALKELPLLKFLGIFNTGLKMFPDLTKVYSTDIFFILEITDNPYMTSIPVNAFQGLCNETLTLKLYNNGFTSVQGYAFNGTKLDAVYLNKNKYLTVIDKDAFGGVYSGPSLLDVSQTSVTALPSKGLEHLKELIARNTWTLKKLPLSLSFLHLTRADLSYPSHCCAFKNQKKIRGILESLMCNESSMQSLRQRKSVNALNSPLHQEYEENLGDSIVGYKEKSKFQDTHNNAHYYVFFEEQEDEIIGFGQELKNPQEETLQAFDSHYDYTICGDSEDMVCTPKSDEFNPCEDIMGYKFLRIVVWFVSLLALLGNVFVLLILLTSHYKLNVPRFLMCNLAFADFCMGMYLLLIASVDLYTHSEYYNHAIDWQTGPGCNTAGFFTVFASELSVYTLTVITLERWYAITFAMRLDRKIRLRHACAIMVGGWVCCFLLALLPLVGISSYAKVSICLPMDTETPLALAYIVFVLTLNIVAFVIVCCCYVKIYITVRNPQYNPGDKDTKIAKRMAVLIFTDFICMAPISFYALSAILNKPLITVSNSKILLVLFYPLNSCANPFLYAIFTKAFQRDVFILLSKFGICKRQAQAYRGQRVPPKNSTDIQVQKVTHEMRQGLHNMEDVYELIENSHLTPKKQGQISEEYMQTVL", "test": "GPCR Profiler", "assay_type": "cell-based"}, "[8]": {"biological_target": "T8, 5-HT1A (Homo sapiens, UniProt P08908)", "T8 construct": "host or cells: Chem-1 cells with promiscuous Gα15", "T8 sequence (P08908 whole entry)": "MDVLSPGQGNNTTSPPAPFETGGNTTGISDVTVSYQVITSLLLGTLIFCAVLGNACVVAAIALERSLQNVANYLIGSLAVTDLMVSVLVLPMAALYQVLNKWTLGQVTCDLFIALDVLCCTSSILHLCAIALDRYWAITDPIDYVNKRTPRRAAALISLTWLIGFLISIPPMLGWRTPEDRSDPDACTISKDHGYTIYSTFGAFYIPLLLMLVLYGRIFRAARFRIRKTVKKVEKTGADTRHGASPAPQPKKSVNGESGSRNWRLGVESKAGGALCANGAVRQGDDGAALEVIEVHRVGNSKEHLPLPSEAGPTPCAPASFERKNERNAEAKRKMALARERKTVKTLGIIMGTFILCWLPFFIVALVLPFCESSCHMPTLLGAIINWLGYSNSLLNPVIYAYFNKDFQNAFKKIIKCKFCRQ", "test": "GPCR Profiler", "assay_type": "cell-based"}, "[9]": {"biological_target": "T9, PRKD1 (Homo sapiens, UniProt Q15139)", "T9 construct": "purchased DiscoveRx (Fremont, CA)", "T9 sequence (Q15139 whole entry)": "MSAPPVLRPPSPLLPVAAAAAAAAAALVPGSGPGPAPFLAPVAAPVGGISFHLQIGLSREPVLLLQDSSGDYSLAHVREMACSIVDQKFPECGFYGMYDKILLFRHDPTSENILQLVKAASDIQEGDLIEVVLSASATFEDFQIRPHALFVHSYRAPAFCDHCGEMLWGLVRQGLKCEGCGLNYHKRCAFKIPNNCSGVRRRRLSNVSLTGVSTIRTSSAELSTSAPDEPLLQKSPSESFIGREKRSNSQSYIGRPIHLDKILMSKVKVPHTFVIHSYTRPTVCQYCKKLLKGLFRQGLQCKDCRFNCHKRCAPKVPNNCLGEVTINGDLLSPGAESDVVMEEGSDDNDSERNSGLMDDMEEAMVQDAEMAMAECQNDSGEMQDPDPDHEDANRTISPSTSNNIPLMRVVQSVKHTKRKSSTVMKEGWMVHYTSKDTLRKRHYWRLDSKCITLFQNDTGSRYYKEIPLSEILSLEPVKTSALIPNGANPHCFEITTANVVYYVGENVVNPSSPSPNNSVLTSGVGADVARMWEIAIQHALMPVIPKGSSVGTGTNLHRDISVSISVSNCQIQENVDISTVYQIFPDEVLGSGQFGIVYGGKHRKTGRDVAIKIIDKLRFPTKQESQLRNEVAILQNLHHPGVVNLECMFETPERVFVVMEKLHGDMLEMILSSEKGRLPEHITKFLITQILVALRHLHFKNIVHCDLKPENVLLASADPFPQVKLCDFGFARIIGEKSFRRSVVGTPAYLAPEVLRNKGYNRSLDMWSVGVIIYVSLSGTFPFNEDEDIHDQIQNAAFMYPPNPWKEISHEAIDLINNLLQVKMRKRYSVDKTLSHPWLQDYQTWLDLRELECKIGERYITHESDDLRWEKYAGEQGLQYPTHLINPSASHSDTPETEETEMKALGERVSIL", "test": "KinomeScan", "assay_type": "binding", "conditions": "read-out: % Control"}, "[10]": {"biological_target": "T10, ADCK3 (Homo sapiens, UniProt Q8NI60)", "T10 construct": "purchased DiscoveRx (Fremont, CA)", "T10 sequence (Q8NI60 163-647)": "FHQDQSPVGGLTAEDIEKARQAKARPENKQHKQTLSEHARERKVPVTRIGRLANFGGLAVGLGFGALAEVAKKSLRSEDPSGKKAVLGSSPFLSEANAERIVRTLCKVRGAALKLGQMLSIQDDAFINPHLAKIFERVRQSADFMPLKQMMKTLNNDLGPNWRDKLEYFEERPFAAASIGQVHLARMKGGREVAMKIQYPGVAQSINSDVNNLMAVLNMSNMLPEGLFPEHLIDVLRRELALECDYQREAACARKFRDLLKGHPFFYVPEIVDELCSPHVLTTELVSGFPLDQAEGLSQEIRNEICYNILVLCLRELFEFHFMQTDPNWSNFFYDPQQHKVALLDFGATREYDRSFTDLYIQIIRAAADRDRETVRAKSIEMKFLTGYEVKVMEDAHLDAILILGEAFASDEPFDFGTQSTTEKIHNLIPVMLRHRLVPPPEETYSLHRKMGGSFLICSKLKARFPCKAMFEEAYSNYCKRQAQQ", "test": "KinomeScan", "assay_type": "binding", "conditions": "read-out: % Control"}, "[11]": {"biological_target": "T11, ERBB4 (Homo sapiens, UniProt Q15303)", "T11 construct": "purchased DiscoveRx (Fremont, CA)", "test": "KinomeScan", "assay_type": "binding", "conditions": "read-out: % Control"}, "[12]": {"biological_target": "T12, M1 (Homo sapiens, UniProt P11229)", "T12 construct": "host or cells: Chem-1 cells with promiscuous Gα15", "T12 sequence (P11229 whole entry)": "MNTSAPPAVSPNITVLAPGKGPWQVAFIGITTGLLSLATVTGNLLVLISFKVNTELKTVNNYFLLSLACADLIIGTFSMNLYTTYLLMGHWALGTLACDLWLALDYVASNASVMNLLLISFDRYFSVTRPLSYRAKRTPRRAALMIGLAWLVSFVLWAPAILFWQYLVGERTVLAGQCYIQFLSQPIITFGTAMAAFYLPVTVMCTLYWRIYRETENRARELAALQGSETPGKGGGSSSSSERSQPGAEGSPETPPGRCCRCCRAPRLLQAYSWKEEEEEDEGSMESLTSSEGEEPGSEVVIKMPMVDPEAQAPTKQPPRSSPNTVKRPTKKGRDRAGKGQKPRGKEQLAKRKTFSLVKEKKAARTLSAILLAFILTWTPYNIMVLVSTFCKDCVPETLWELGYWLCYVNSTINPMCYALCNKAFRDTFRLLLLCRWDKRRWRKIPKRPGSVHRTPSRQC", "test": "GPCR Profiler", "assay_type": "cell-based"}, "[13]": {"biological_target": "T13, SBK1 (Homo sapiens, UniProt Q52WX2)", "T13 construct": "purchased DiscoveRx (Fremont, CA)", "T13 sequence (Q52WX2 whole entry)": "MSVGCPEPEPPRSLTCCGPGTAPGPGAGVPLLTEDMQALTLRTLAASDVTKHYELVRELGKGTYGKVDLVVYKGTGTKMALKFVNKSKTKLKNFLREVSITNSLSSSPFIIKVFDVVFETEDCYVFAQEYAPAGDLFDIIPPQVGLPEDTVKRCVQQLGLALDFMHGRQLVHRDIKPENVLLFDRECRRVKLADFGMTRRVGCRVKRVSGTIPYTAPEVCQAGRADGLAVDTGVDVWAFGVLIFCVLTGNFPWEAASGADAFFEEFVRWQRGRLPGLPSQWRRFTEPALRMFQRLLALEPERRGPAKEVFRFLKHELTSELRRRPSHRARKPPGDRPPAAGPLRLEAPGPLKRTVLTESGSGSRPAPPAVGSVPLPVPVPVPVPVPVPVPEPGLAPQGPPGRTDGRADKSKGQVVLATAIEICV", "test": "KinomeScan", "assay_type": "binding", "conditions": "read-out: % Control"}, "[14]": {"tested_on": "6 independent patient derived lines (PDX and Neurospheres)", "test": "2D monolayer viability (Cell Titer-Glo)", "assay_type": "cell-based", "conditions": "Homo sapiens; range over the 6 lines; read-out: LC50 (the source's name)", "method": "GBM neurospheres and low passage PDX models were plated in 96-well plates at 10,000 cells per well in 50 μL of neural stem cell media. The next day, the cells were treated with OGM2 compounds at the indicated concentrations, in triplicates, by adding an equal volume of medium containing 2× the final concentration of compound. Following 72 hours incubation under standard cell culture conditions, relative cell number was assessed using Cell Titer-Glo Luminescent Cell Viability Assay (Promega™) following the manufacturer's instructions. Luminescence was determined using a Cytation 5 reader and Gen5 software package (BioTek™). For U87 and U138 cell lines, one thousand cells were plated per well in a standard 96-well plate and allowed to attach for 24 hours before exposure to concentrations of vehicle, OGM2, or TMZ. Cells were treated for 72 hours and then stained with DAPI. A 10× magnification lens on a LionheartFX (BioTek™) was used to image the wells, and images were stitched together with Gen5 software (BioTek™). Automated nuclei counting was also done using the Gen5 software. Results reported as percent response relative to DMSO control. IC50 (the concentration causing 50% inhibition) was determined by GraphPad Prism™ version 6.07.\nSee FIG. 56, FIG. 55E, and FIG. 55F. […] Similarly."}, "[15]": {"tested_on": "REC-1", "test": "Cell Titer-Glo viability, B-cell lymphoma", "assay_type": "cell-based", "conditions": "72 hours", "method": "(§1) OGM2 kills wide variety of cancer cell types. Cell sensitivity can be classified in to Very Sensitive (LC50<2 μM), Sensitive (LC50=2 to 10 μM), Mildly Sensitive (LC50>10 μM), and Refractory (no killing at 10 μM). The listed established cell were incubated with OGM2 at 2 μM or 10 μM for 72 hours under standard cell culture conditions, and relative cell number was assessed using Cell Titer-Glo Luminescent Cell Viability Assay (Promega™) following the manufacturer's instructions. Luminescence was determined using a Cytation 5 reader and Gen5 software package (BioTek™).\nCancer cells, which are very sensitive to killing by OGM2 (LCs <2 μM), with reported mRNA expression of GPR68 and the related proton sensing receptor GPR4. LC50's (concentrations causing 50% lethality) were determined using CellTiter-Glo (Promega™, G7570). Cells were plated in 12-well plates (CELLTREAT Scientific Products, 229112) in 1 ml of DMEM with high glucose, GlutaMAX, HEPES, or RPMI 1640 with Penicillin-Streptomycin (ThermoFisher™, 10564029, 11875119 and 15140122) and 10% FBS. Cells were incubated overnight at 37° C. in 5% CO2. Then 1 mL of fresh media was added with DMSO, OGM, or positive control (Erastin; APExBIO Technology, LLC, B1524) and cells incubated for 3 days. On the third day, all media was removed, cells were rinsed with 1×PBS, PBS was removed, and 200 μL of 1× Passive Lysis Buffer (Promega™, E1941) was added to each well. […]. […] Plates were briefly spun down and read on a GloMax-Multi Detection System (Promega™).\nThe cells listed in the tables above were incubated with OGM2 at 2 μM or 10 μM for 72 hours under standard cell culture conditions, and relative cell number was assessed using Cell Titer-Glo Luminescent Cell Viability Assay (Promega™) following the manufacturer's instructions. Luminescence was determined using a Cytation 5 reader and Gen5 software package (BioTek™). […] The consensus normalized expression value (“nTPM”=normalize transcript per million) was calculated as the maximum nTPM value for each gene in the two data sources."}, "[16]": {"tested_on": "HT-29", "test": "Cell Titer-Glo viability, Colorectal adenocarcinoma", "assay_type": "cell-based", "design": "key to Class: Very Sensitive (LC50<2 μM); Sensitive (LC50=2 to 10 μM); Mildly Sensitive (LC50>10 μM); Refractory (no killing at 10 μM)", "method": "as §1\nCancer cells, which are very sensitive to killing by OGM2 (LCs <2 μM), with reported mRNA expression of GPR68 and the related proton sensing receptor GPR4. LC50's (concentrations causing 50% lethality) were determined using CellTiter-Glo (Promega™, G7570). Cells were plated in 12-well plates (CELLTREAT Scientific Products, 229112) in 1 ml of DMEM with high glucose, GlutaMAX, HEPES, or RPMI 1640 with Penicillin-Streptomycin (ThermoFisher™, 10564029, 11875119 and 15140122) and 10% FBS. Cells were incubated overnight at 37° C. in 5% CO2. Then 1 mL of fresh media was added with DMSO, OGM, or positive control (Erastin; APExBIO Technology, LLC, B1524) and cells incubated for 3 days. On the third day, all media was removed, cells were rinsed with 1×PBS, PBS was removed, and 200 μL of 1× Passive Lysis Buffer (Promega™, E1941) was added to each well. […]. Subsequently, 20 μL of lysate was added to 100 μL CellTiter-Glo™ reagent on a LUMITRAC 200 plate (Greiner™ bio-one, 82050-726). Plates were briefly spun down and read on a GloMax-Multi Detection System (Promega™).\nThe cells listed in the tables above were incubated with OGM2 at 2 μM or 10 μM for 72 hours under standard cell culture conditions, and relative cell number was assessed using Cell Titer-Glo Luminescent Cell Viability Assay (Promega™) following the manufacturer's instructions. Luminescence was determined using a Cytation 5 reader and Gen5 software package (BioTek™). RNA expression of GPR68 and GPR4 in the corresponding cancer cell lines are listed, according to the publicly available The Human Protein Atlas version 22.0 and Ensembl version 103.38 (see proteinatlas.org). The consensus normalized expression value (“nTPM”=normalize transcript per million) was calculated as the maximum nTPM value for each gene in the two data sources."}}}
{"compound": "CCc1ccc2c(c1)C1(NN=C(c3cccc4ccccc34)S1)C(=O)N2", "note": "(stereo not shown) [OGM1, 5-ethyl-5′-naphthalen-1-ylspiro[1H-indole-3,2′-3H-1,3,4-thiadiazole]-2-one]", "values": [{"measurement": "remaining binding at 10 µM", "setting": "[1]", "result": 100, "unit": "%"}, {"measurement": "remaining binding at 10 µM", "setting": "[2]", "result": 91, "unit": "%"}, {"measurement": "Antagonism", "setting": "[3]; 10 uM", "result": "−5.7"}, {"measurement": "Agonism", "setting": "[3]; 12.5 uM", "result": 0.8}, {"measurement": "remaining binding at 10 µM", "setting": "[4]", "result": 84, "unit": "%"}, {"measurement": "remaining binding at 10 µM", "setting": "[5]", "result": 100, "unit": "%"}, {"measurement": "remaining binding at 10 µM", "setting": "[6]", "result": 100, "unit": "%"}, {"measurement": "Antagonism", "setting": "[7]; 10 uM", "result": 5.9}, {"measurement": "Agonism", "setting": "[7]; 12.5 uM", "result": "−0.1"}, {"measurement": "Antagonism", "setting": "[8]; 10 uM", "result": "−7.5"}, {"measurement": "Agonism", "setting": "[8]; 12.5 uM", "result": "−0.8"}, {"measurement": "remaining binding at 10 µM", "setting": "[9]", "result": 100, "unit": "%"}, {"measurement": "remaining binding at 10 µM", "setting": "[10]", "result": 100, "unit": "%"}, {"measurement": "remaining binding at 10 µM", "setting": "[11]", "result": 100, "unit": "%"}, {"measurement": "Antagonism", "setting": "[12]; 10 uM", "result": "−3.3"}, {"measurement": "Agonism", "setting": "[12]; 12.5 uM", "result": 0.8}, {"measurement": "remaining binding at 10 µM", "setting": "[13]", "result": 100, "unit": "%"}]}
{"compound": "CCc1ccc2c(c1)C1(NN=C(c3ccccc3)S1)C(=O)N2", "note": "(stereo not shown) [OGM2]", "values": [{"measurement": "CC50", "setting": "[14]", "result": "420 to 2700", "unit": "nM"}, {"measurement": "% Survival 2 μM OGM", "setting": "[15]", "result": 0.7, "unit": "%"}, {"measurement": "% Survival 10 μM OGM", "setting": "[15]", "result": 0.0, "unit": "%"}, {"measurement": "CC50", "setting": "[15]; Homo sapiens, Rec1, read-out: LC50 (the source's name)", "result": "< 2000", "unit": "nM"}, {"measurement": "Class", "setting": "[16]", "result": "Refractory"}, {"measurement": "% Survival 2 μM OGM", "setting": "[16]; 72 hours", "result": 102.8, "unit": "%"}, {"measurement": "% Survival 10 μM OGM", "setting": "[16]; 72 hours", "result": 103.9, "unit": "%"}, {"measurement": "LC50 (μM)", "setting": "[16]; 72 hours", "result": "No"}]}
